Data from US11642307B2, “Ambrisentan for use in the treatment of acute renal failure” (Noorik Biopharmaceuticals AG, priority 2016, dated 2023).

Tests used:
[1] = human studies, ambrisentan 5 and 10 mg/day; cited from earlier work
[2] = Stability of ambrisentan liquid compositions; type: physicochemical; conditions: use of an autoclave
Text: The liquid compositions of the invention can be prepared using conventional techniques. Typically, the invention pertains to a process for preparing a liquid composition comprising the steps of (a) contacting the endothelin receptor antagonist, preferably ambrisentan, the buffer and the solvent and optionally the excipient and (b) stirring the solution to allow dissolution of the various ingredients, in particular the endothelin receptor antagonist or ambrisentan; and (c) subsequently sterilizing the resulting solution. Step (a) of the process of the invention may comprise of contacting all ingredients at once or it may comprise contacting the ingredients in sequential order, whereby the one or more steps can proceed at the same temperature or at different temperatures. For example, the ingredients that easily dissolve in the solvent at room temperature can be contacted at room temperature first, and subsequently the temperature can be raised, e.g. to 50° C., after which the lowly soluble compounds are added, e.g. the endothelin receptor antagonist such as ambrisentan. Step (b) may proceed until no solid particles can be discerned visually or through analytical techniques. The sterilization of step (c) of the process can be conducted using any sterilization technique known in the art such as filtration and autoclave sterilization. […]

ETB receptor = target: T1, ETB receptor (Homo sapiens, UniProt P24530); test: Plasma endothelin-1 as measure of ETB receptor blockade in healthy human subjects; type: in vivo; conditions: Group B (high dose, target 80 and 160 ng/mL)
T1 construct: from tissue; host or cells: living healthy human subjects (in vivo study; plasma endothelin-1 measured)
T1 sequence (P24530 27-442): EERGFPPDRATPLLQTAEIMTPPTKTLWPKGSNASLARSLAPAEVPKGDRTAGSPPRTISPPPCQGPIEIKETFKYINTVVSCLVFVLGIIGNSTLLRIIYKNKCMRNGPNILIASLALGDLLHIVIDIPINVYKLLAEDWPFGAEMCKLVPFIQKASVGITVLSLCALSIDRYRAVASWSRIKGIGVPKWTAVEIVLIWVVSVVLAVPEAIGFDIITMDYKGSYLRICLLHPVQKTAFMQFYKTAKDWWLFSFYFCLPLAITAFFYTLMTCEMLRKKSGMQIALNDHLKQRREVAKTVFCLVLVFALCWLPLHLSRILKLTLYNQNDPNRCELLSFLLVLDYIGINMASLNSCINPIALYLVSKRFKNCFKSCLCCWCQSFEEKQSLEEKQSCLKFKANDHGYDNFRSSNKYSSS
Protocol: Finally, the effect of the different concentrations of ambrisentan on the ETB receptor blockade was determined by measuring plasma endothelin-1 at different timepoints of the study.

porcine kidneys = test: Reperfusion of porcine kidneys following ischemic injury with endothelin-1 challenge; parameters: species or system Landrace cross female pigs; conditions: treated kidneys, ambrisentan 150 μg/l
Protocol: All experiments were undertaken in accordance with the Home Office animals (Scientific Procedures) Act 1986. Ten kidneys were retrieved from 5 Landrace cross female pigs weighing approximately 50 kg. Two pairs of kidneys underwent 20 minutes of warm ischaemic injury and were then flushed with 500 m1 of UW solution at 4° C. and stored on ice for 18 hours. After 18 hours cold storage, kidneys were prepared and flushed with 100 m1 of Ringer's solution 4° C. with or without liquid composition of Example 1 which is diluted to an ambrisentan concentration of 150 μg/l. They were then left at room temperature for 20 minutes. The remaining three pairs of kidneys were retrieved after 10 minutes of warm ischaemia and stored on ice for 6 hours. They were prepared and flushed as previously described then left at room temperature for 10 minutes before reperfusion.
Kidneys were perfused with 1 liter of diluted whole autologous heparinized blood at 38.0° C. for 6 hours to assess renal function and injury. 1000 μmol/l of creatinine (Sigma-Aldrich) was added to the circuit. In the treated kidneys the ambrisentan-containing liquid composition as described above (150 μg/l) was added to the reperfusion circuit 10 minutes before the start of reperfusion. In the control and treated kidneys after 2 h 50 min of reperfusion, endothelin-1 (Sigma-Aldrich) was added to the arterial line of reperfusion circuit to achieve a concentration of (20 pg/ml). A sample of the perfusate was taken from the renal vein during the post preservation flush. Perfusion data was recorded after 30 minutes of reperfusion then at each hour. Plasma and urine samples were taken pre-reperfusion, 30 minutes after reperfusion, then at hourly time points to measure renal function.

healthy human subjects = test: 24-hour intravenous ambrisentan infusion in healthy human subjects: urine output, water balance, free water clearance; type: in vivo
Protocol: A study was performed to determine whether lower concentrations of ambrisentan in blood are less likely to produce renal side effects as those seen with current concentrations achieved with the current commercial presentation of ambrisentan. In this study a liquid composition of ambrisentan at a concentration of 5 mg/mL was administered to 20 healthy human subjects at varying rates of administration in order to achieve different ambrisentan concentrations in blood and over a period of 24 hours. Target concentrations in the low dose group were 20 and 40 ng/mL (Group A) after 4 hours and 16 hours respectively, and 80 and 160 ng/mL in the high dose group (Group B) after 4 hours and 16 hours respectively. […] Steady state for each target concentration was maintained for at least 8 hours prior to increasing the concentration. Ten subjects were assigned to Group A and ten subjects to Group B. Pharmacokinetic and plasma ET-1 samples were collected and analysed at different timepoints for up to 72 hours. Urine was collected for 24 hours and in intervals from 0-2 hours, 2-4 hours, 4-8 hours, 8-12, hours, 12-18 hours and 18-24 hours.
All subjects received a 100 ml/hr infusion of 0.45% physiological solution for 24 hours and ambrisentan was administered in a 250-mL solution of 0.9% of physiological solution over a period of 24 hours. Subjects had free access to water and a normal diet. At a minimum, subjects received through intravenous infusion a total of 2650 mL of water and 223.3 mmol of sodium in the 24-hour period of drug administration.
The effect on urine was consistent throughout the different collection periods of the 24-hour infusion period. Patients in Group A maintained higher urinary output rates throughout the study as compared to Group B. In the Tables Below, Water Balance is the result of subtracting urine volume from intravenous liquid input.
The increase in urine formation (diuresis) was further characterised by determining the effect of ambrisentan on urine composition, specifically urine osmolality.

[3] = Raina et al; cited from earlier work
[4] = time 180 min (endothelin-1 20 pg/ml added after 2 h 50 min)
[5] = time 240 min (after endothelin-1)
[6] = time 300 min (after endothelin-1)
[7] = time 360 min (after endothelin-1)

stability on autoclave sterilization [2]: can decompose
increase in plasma endothelin-1 from baseline (ETB receptor): more than 50%
Compound: COC(c1ccccc1)(c1ccccc1)[C@H](Oc1nc(C)cc(C)n1)C(=O)O [ambrisentan]
plasma levels [1]: exceeding 350 ng/ml
Oxygen consumption (porcine kidneys; 1 h of reperfusion): 63%
Oxygen consumption (porcine kidneys; 3 h of reperfusion): 64%
Oxygen consumption (porcine kidneys; 6 h of reperfusion): 55%
Renal blood flow (porcine kidneys; time 0 min): 45 ml/min/100 g
Renal resistance (porcine kidneys; time 0 min): 1.22 mmHg/min/100 g
Urine flow (porcine kidneys; time 0.5 h): 148 mL
Renal blood flow (porcine kidneys; time 30 min): 79 ml/min/100 g
Renal resistance (porcine kidneys; time 30 min): 0.58 mmHg/min/100 g
Urine flow (porcine kidneys; time 1 h): 124 mL
Renal blood flow (porcine kidneys; time 60 min): 84 ml/min/100 g
Renal resistance (porcine kidneys; time 60 min): 0.55 mmHg/min/100 g
Renal blood flow (porcine kidneys; time 120 min): 85 ml/min/100 g
Renal resistance (porcine kidneys; time 120 min): 0.56 mmHg/min/100 g
Urine flow (porcine kidneys; time 2 h): 116 mL
Urine flow (porcine kidneys; time 3 h): 80 mL
Renal blood flow (porcine kidneys; [4]): 85 ml/min/100 g
Renal resistance (porcine kidneys; [4]): 0.60 mmHg/min/100 g
Urine flow (porcine kidneys; time 4 h): 62 mL
Renal blood flow (porcine kidneys; [5]): 97 ml/min/100 g
Renal resistance (porcine kidneys; [5]): 0.56 mmHg/min/100 g
Urine flow (porcine kidneys; time 5 h): 44 mL
Renal blood flow (porcine kidneys; [6]): 93 ml/min/100 g
Renal resistance (porcine kidneys; [6]): 0.62 mmHg/min/100 g
Renal blood flow (porcine kidneys; [7]): 77 ml/min/100 g
Renal resistance (porcine kidneys; [7]): 0.78 mmHg/min/100 g
Hourly Water Balance, Mean (healthy human subjects; Group A (low dose, target 20 and 40 ng/mL), collection period 0 H to 2 H): -74.58 mL/h
Hourly Water Balance, Mean (healthy human subjects; Group A (low dose, target 20 and 40 ng/mL), collection period 2 H to 4 H): -76.08 mL/h
Hourly Water Balance, Mean (healthy human subjects; Group A (low dose, target 20 and 40 ng/mL), collection period 4 H to 8 H): -1.08 mL/h
Hourly Water Balance, Mean (healthy human subjects; Group A (low dose, target 20 and 40 ng/mL), collection period 8 H to 12 H): -12.58 mL/h
Hourly Water Balance, Mean (healthy human subjects; Group A (low dose, target 20 and 40 ng/mL), collection period 12 H to 18 H): -13.75 mL/h
Hourly Water Balance, Mean (healthy human subjects; Group A (low dose, target 20 and 40 ng/mL), collection period 18 H to 24 H): -32.92 mL/h
Cumulative Water Balance, Mean (healthy human subjects; Group A (low dose, target 20 and 40 ng/mL), end of collection 2 H): -149.17 mL
Cumulative Water Balance, Mean (healthy human subjects; Group A (low dose, target 20 and 40 ng/mL), end of collection 4 H): -301.33 mL
Cumulative Water Balance, Mean (healthy human subjects; Group A (low dose, target 20 and 40 ng/mL), end of collection 8 H): -305.67 mL
Cumulative Water Balance, Mean (healthy human subjects; Group A (low dose, target 20 and 40 ng/mL), end of collection 12 H): -356.00 mL
Cumulative Water Balance, Mean (healthy human subjects; Group A (low dose, target 20 and 40 ng/mL), end of collection 18 H): -438.50 mL
Cumulative Water Balance, Mean (healthy human subjects; Group A (low dose, target 20 and 40 ng/mL), end of collection 24 H): -636.00 mL
Hourly Water Balance, Mean (healthy human subjects; Group B (high dose, target 80 and 160 ng/mL), collection period 0 H to 2 H): -6.33 mL/h
Hourly Water Balance, Mean (healthy human subjects; Group B (high dose, target 80 and 160 ng/mL), collection period 2 H to 4 H): 11.17 mL/h
Hourly Water Balance, Mean (healthy human subjects; Group B (high dose, target 80 and 160 ng/mL), collection period 4 H to 8 H): 27.17 mL/h
Hourly Water Balance, Mean (healthy human subjects; Group B (high dose, target 80 and 160 ng/mL), collection period 8 H to 12 H): 7.17 mL/h
Hourly Water Balance, Mean (healthy human subjects; Group B (high dose, target 80 and 160 ng/mL), collection period 12 H to 18 H): -10.08 mL/h
Hourly Water Balance, Mean (healthy human subjects; Group B (high dose, target 80 and 160 ng/mL), collection period 18 H to 24 H): 34.75 mL/h
Cumulative Water Balance, Mean (healthy human subjects; Group B (high dose, target 80 and 160 ng/mL), end of collection 2 H): -12.67 mL
Cumulative Water Balance, Mean (healthy human subjects; Group B (high dose, target 80 and 160 ng/mL), end of collection 4 H): 9.67 mL
Cumulative Water Balance, Mean (healthy human subjects; Group B (high dose, target 80 and 160 ng/mL), end of collection 8 H): 118.33 mL
Cumulative Water Balance, Mean (healthy human subjects; Group B (high dose, target 80 and 160 ng/mL), end of collection 12 H): 147.00 mL
Cumulative Water Balance, Mean (healthy human subjects; Group B (high dose, target 80 and 160 ng/mL), end of collection 18 H): 86.50 mL
Cumulative Water Balance, Mean (healthy human subjects; Group B (high dose, target 80 and 160 ng/mL), end of collection 24 H): 295.00 mL
fluid accumulation (healthy human subjects; ambrisentan concentrations above 100 ng/mL): significant accumulation of fluid through the inability to increase urinary output
renal effect, fluid retention (healthy human subjects; total ambrisentan lower than 100 ng/mL): have less of an effect on fluid retention
renal effect, fluid retention (healthy human subjects; total ambrisentan of about 100 ng/mL and higher): show an adverse renal effect by promoting fluid retention
pharmacokinetic interactions with cyclosporine A and tacrolimus [3]: absence of pharmacokinetic interactions
